# Experimental data from EP0714662A1, “ANTIALLERGIC AGENT” (MEIJI MILK PRODUCTS COMPANY LIMITED, priority 1993, dated 1995).
# Ends that are not written are not given here.
# How the values were obtained:
# [1] = tested on: serum IgE from 15 patients suffering from mite rhinallergosis; experiment: Enzyme antibody assay: binding of solid phase Der p II overlapping peptides to patients' serum IgE; set-up: species or system human; details: serum from each of 15 patients
# Description: The complete primary structure of the amino acid sequence of a Der p II protein was determined after cDNA was isolated therefrom by Chua et al. (Int. Arch. Allergy Appl. Immunol. 91: 118-123, 1990). Based on the amino acid sequence, peptides were synthesized on a solid phase using a multipin system (manufactured by Chiron) and coupling reagents, Fmoc-amino acid and DCC (dicyclohexyl carbodiimide) (Geysen, H.M. et al., Proc. Natl. Acad. Sci. USA. 81:3998-4002, 1984). Sixty-one kinds of peptides were synthesized, the first peptide comprising the first through ninth amino acids of the N-terminal of Der p II, the second peptide comprising the third through eleventh amino acids of the N-terminal, and the third through 61st peptides being prepared in an analogous manner.
# The RAST (radio-allergosorbent test, Pharmacia) values as determined using antigens from two mite species, Dermatophagoides pteronyssinus (Der p) and Dermatophagoides farina (D f), were class 4. Each of the above-mentioned 61 synthesized peptides and 100 µl of each patient's serum were placed in a 96-well plate and reacted overnight at room temperature. Synthesized peptides in a solid phase were washed three times to remove the patient's serum using a washing solution of 0.05% Tween 20/0.15 M NaCl/Tris-HCl (pH 7.5). 100 µl of galactosidase-labelled anti-human IgE antibodies (Pharmacia) were diluted to 40-fold using a 1:9 diluted Block-ace (product of Dainippon Seiyaku K.K.). The diluted solution was added to a 96-well plate, each synthesized solid phase peptide was also added, and reaction, was allowed to proceed overnight at room temperature. The synthesized solid phase peptide was washed with the same washing solution five times. Thereafter, to a 96-well black plate (manufactured by Dainippon Seiyaku K.K.), were added 200 µl of a solution of 0.1 mM 4-methylumbelliferyl-β-D-galactopyranoside in 0.1% bovine serum albumin/0.1 M NaCl/1 mM MgCl₂/0.1% sodium azide/10 mM phosphate buffer (pH 7.0). Subsequently, the synthesized solid phase peptide was added and reacted for 2 hours at 37°C. After completion of reaction, 100 µl of a reaction terminating solution (0.1 M glycin/NaOH, pH 10.3) were added to each well, and absorbance was measured using a fluorospectrophotometer for 96-well plates (Manufactured by Flow). This reaction was studied for each of 15 patients.
# [2] = tested on: pooled patients' serum IgE; experiment: Binding inhibition assay: pooled patients' serum IgE to mite body extract (MBE); set-up: species or system human; details: peptide concentration of about 5 µg/ml - 5 mg/ml; pooled serum of 10 patients
# Description: A crude mite body extract (MBE) was prepared from a mite, Dermatophagoides pteronyssinus (Der p), by homogenizing Der p mite bodies in 0.15 M NaCl/phosphate buffer (pH 7.3, PBS) using a Teflon homogenizer and centrifugally separating to collect the supernatant. A pooled serum IgE from patients was prepared by blending sera from 10 patients suffering from rhinallergosis caused by mites (RAST values with respect to Dermat ophagoides pteronyssinus: 3 or more). The peptide (Der p II 55-63) was synthesized by a Fmoc method using a peptide synthesizer pssm 8 manufactured by Shimadzu Corporation. The results of the synthesis were confirmed by an amino acid analysis and by an analysis of the primary structure. The MBE was added to each well of a 96-well black plate (Dainippon Seiyaku k.K.) so that the amount of protein contained was 1 µg/well (100 µl). The plate was allowed to stand overnight at 4°C. […] After completion of reaction, 100 µl of a reaction terminating liquid (0.1 M glycin/NaOH, pH 10.3) were added to each well, and absorbance was measured using a fluorospectrophotometer for 96-well plates (Manufactured by Flow). The absorbance in a control which was prepared by adding a PBS solution in place of the peptide was taken as 100%.
# [3] = tested on: basophils artificially sensitized in a passive manner with serum IgEs from patients suffering from rhinallergosis caused by mites; experiment: Passive histamine release (inhibition) test with passively sensitized basophils; format: cell-based, human
# Description: To 20 ml of heparinized venous blood, 5 ml of a 4.5% dextran solution were added and the mixture was allowed to stand for 30 to 60 minutes at room temperature. The upper leukocyte layer was extracted and subjected to a repetitive centrifugal operation. The leukocytes were then washed with PBS. To the leuokocytes in a precipitated fraction, 20 ml of a lactate buffer (pH 3.9, 4°C) were added and thoroughly mixed. After cooling the mixture on ice for 2 to 5 minutes, the pH was returned to neutral by adding PBS (25 ml). By this operation, IgEs on basophils were released. The leukocytes were washed well with PBS and suspended in 0.5% human albumin/PBS. 100 µl of cell suspension (approximately 2 x 10⁵ cells/well) were added to a V-bottom 96-well plate. Fifty µl of a pooled serum of patients suffering from rhinallergosis caused by mites were further added, and reaction was allowed to proceed for 1 hour at 37°C. This procedure caused serum IgEs from the patients suffering from rhinallergosis caused by mites to be bound to IgE receptors. Thus, basophils artificially sensitized in a passive manner with serum IgEs from patients suffering from rhinallergosis caused by mites can be obtained (Pruzansky J.J. et al., J. Immunol., 131; 1949-1953, 1983). The plate was centrifuged to remove 100 µl of a supernatant. 100 µl of a 0.5% human albumin/PBS were added to the residue and centrifuged again. The centrifugal operation was repeated twice, and the cells were then washed. 100 µl of a Der p II peptide (55-63) having a predetermined concentration of PBS were combined with 50 µl of an MBE (10 µg/50 µl) or PBS, and allowed to react for 30 minutes at 37°C. The plate was then centrifuged to collect 100 µl of a supernatant. The amount of histamine was determined using a histamine assay kit manufactured by Eiken Kagaku K.K.
# Essentially, a histamine release test is performed to determine the amount of histamine released when an antigen solution (an allergen solution) is added to a sample of whole blood (fresh blood) from an allergic patient. […]
sequence,measurement,setting,value
KASIDGLEV [synthesized peptide No. 28],binding reactions with IgE antibodies,[1],exhibited binding reactions with IgE antibodies
same,inhibition of binding of pooled patients' serum IgE to MBE,[2],20%
same,suppression of histamine release caused by MBE,[3]; low peptide concentrations,could not suppress histamine release
same,suppression of histamine release caused by MBE,"[3]; peptide concentration 7.55 mg/ml, MBE 10 µg/50 µl",about 90%
same,histamine release,[3]; substance added alone to passively sensitized basophils,histamine was scarcely released
